Assay results reported in patent US6610675B1 (priority 1980, dated 2003).
“And” between values parts separate entries of the source, which are not always exact repeats. Equal entries are not always repeated.

Legend:
[1] = system: granulation tissue formation caused by implantation of cotton pellets; test: Granuloma formation test (local cotton pellet granuloma assay); type: in vivo, rat; conditions: Table III
Procedure: The test compound was dissolved in acetone and aliquots of varying concentrations were injected into cotton pellets. The pellets were dried and then one pellet was implanted beneath the skin of each test rat. Six days later, the animals were sacrificed and the granulation tissue (granuloma) which formed in and around the implanted pellet was removed, dried and weighed. In addition, the thymi and adrenals were removed and weighed.

[2] = system: ear swelling induced by croton oil; test: Ear edema test; type: in vivo, rat; conditions: for Ear Weight, % Increase / Ear Weight, % Inhibition / Ear Weight, Inflamed Ear / Ear Weight, Untreated Ear: 6 hr; for Relative organ weight Adrenals / Relative organ weight Thymus: 48 hours
Procedure: The test animals were Sprague/Dawley rats weighing approximately 150 grams each. In treatment groups, selected amounts of the test compound were dissolved in acetone containing 5% croton oil and 50 microliters of the solution were applied to the inner surface of the right ear of the rats. A control group was identically treated with vehicle only, i.e. 5% croton oil in acetone. Six hours after croton oil challenge, a constant region of each ear was removed by dissection under anesthesia. Then, 48 hours after steroid treatment, the animals were sacrificed and the thymi and adrenals were removed and weighed. The test results showing the inhibitory effect of topically applied steroids on the ear swelling induced by croton oil are summarized in Table II below.

blanching in humans = test: McKenzie-type human blanching studies; type: in vivo; conditions: forearm, 6 hours occlusion
Procedure: McKenzie-type human blanching studies were undertaken to study the blanching effects of a representative test compound of the invention, chloromethyl 17α-ethoxycarbonyloxy-11β-hydroxyandrost-4-en-3-one-17β-carboxylate.
The test compound was dissolved in ethanol/isopropyl myristate (90/10 or 70/30) at 0.03, 0.01, 0.003, 0.001 and 0.0003 M concentrations. 50 Microliter aliquots of each solution were applied to separate gauze portions of a bandage of the type commonly used for allergy testing and the bandage was applied to the forearm. After 6 hours of occlusion, the bandage was removed.

thymus weight in rats = test: Thymus involution test (topically administered steroids, thymus weight in rats); conditions: 0.75 μmol topical on ear, after 24 hours
Procedure: The test animals were female Sprague/Dawley rats weighing approximately 40-45 grams each. One side of each ear of each rat was treated with a total of 25 microliters of a solution (ethanol/isopropyl myristate or acetone/isopropyl myristate, 90/10) containing the amount of test compound indicated below. Animals which were treated identically, save for omission of the test compound, served as controls. After 24 hours, all rats were sacrificed and weighed, and their thymi were removed and weighed.
The lower the weight of the thymi, the greater the systemic activity.

Structure (SMILES): CCOC(=O)O[C@]1(C(=O)OCSC)CCC2C3CCC4=CC(=O)CCC4(C)C3C(O)CC21C (stereo partly shown)
- melting point: 133 to 136 °C and 137.5 to 138 °C

Structure (SMILES): CC(C)OC(=O)OC1(C(=O)OCCl)[C@H](C)C[C@H]2[C@@H]3CCC4=CC(=O)C=C[C@]4(C)[C@@]3(F)C(=O)C[C@@]21C (stereo partly shown)
- melting point: 138 to 140 °C

Structure (SMILES): COC(=O)O[C@]1(C(=O)OCCl)CCC2C3CCC4=CC(=O)CCC4(C)C3C(O)CC21C (stereo partly drawn) [chloromethyl 11β-hydroxy-17α-methoxycarbonyloxyandrost-4-en-3-one-17β-carboxylate]
- Granulation tissue Dry wt. ([1]; 1 mg/pellet): 24.6 ± 2.6 mg/100 g body wt.
- Granulation tissue Inhibition ([1]; 1 mg/pellet): 43.7%
- melting point: 171 to 173 °C

Structure (SMILES): CCOC(=O)O[C@]1(C(=O)OCCl)CC[C@H]2[C@@H]3CCC4=CC(=O)CC[C@]4(C)[C@H]3[C@@H](O)C[C@@]21C [chloromethyl 17α-ethoxycarbonyloxy-11β-hydroxyandrost-4-en-3-one-17β-carboxylate]
- Ear Weight, % Increase ([2]; 0.3 mg/kg topical): 23.3 ± 7.2 %
- Ear Weight, % Inhibition ([2]; 0.3 mg/kg topical): 62.1%
- Ear Weight, Inflamed Ear ([2]; 0.3 mg/kg topical): 62.2 ± 3.0 mg
- Ear Weight, Untreated Ear ([2]; 0.3 mg/kg topical): 50.8 ± 2.4 mg
- Relative organ weight Adrenals ([2]; 0.3 mg/kg topical): 26.0 ± 2.5 mg/100 g body wt.
- Relative organ weight Thymus ([2]; 0.3 mg/kg topical): 290 ± 25 mg/100 g body wt.
- Ear Weight, % Increase ([2]; 1 mg/kg topical): 14.0 ± 6.5 %
- Ear Weight, % Inhibition ([2]; 1 mg/kg topical): 77.2%
- Ear Weight, Inflamed Ear ([2]; 1 mg/kg topical): 55.0 ± 2.6 mg
- Ear Weight, Untreated Ear ([2]; 1 mg/kg topical): 48.4 ± 1.0 mg
- Relative organ weight Adrenals ([2]; 1 mg/kg topical): 18.7 ± 1.4 mg/100 g body wt.
- Relative organ weight Thymus ([2]; 1 mg/kg topical): 293 ± 21 mg/100 g body wt.
- Ear Weight, % Increase ([2]; 3 mg/kg topical): 3.7 ± 8.1 %
- Ear Weight, % Inhibition ([2]; 3 mg/kg topical): 94.0%
- Ear Weight, Inflamed Ear ([2]; 3 mg/kg topical): 52.6 ± 1.8 mg
- Ear Weight, Untreated Ear ([2]; 3 mg/kg topical): 51.6 ± 3.2 mg
- Relative organ weight Adrenals ([2]; 3 mg/kg topical): 20.3 ± 0.8 mg/100 g body wt.
- Relative organ weight Thymus ([2]; 3 mg/kg topical): 288 ± 21 mg/100 g body wt.
- swelling of the ear caused by croton oil (in words) ([2]; topical, Table II): substantially inhibited the swelling
- thymus weight as compared to the control (in words) ([2]; topical, Table II): did not significantly decrease the thymus weight as compared to the control
- blanching (blanching in humans; 0.03 to 0.0003 M, 50 microliter, read 1 to 5 hours after removal): blanching was observed even at the lowest concentrations
- concentration causing approximately the same degree of blanching (blanching in humans; direct comparison): ~0.001 M
- Body wt. gain ([1]; 0.1 mg/pellet): 36.0 ± 2.8 g
- Granulation tissue Dry wt. ([1]; 0.1 mg/pellet): 34.7 ± 4.3 mg/100 g body wt.
- Granulation tissue Inhibition ([1]; 0.1 mg/pellet): 20.6%
- Relative organ weight Adrenals ([1]; 0.1 mg/pellet): 22.9 ± 2.6 mg/100 g body wt.
- Relative organ weight Adrenals (Decrease %) ([1]; 0.1 mg/pellet): (3.4) %
- Relative organ weight Thymus ([1]; 0.1 mg/pellet): 282 ± 13 mg/100 g body wt.
- Relative organ weight Thymus (Decrease %) ([1]; 0.1 mg/pellet): (13.5) %
- Body wt. gain ([1]; 0.3 mg/pellet): 33.0 ± 1.3 g
- Granulation tissue Dry wt. ([1]; 0.3 mg/pellet): 25.3 ± 2.3 mg/100 g body wt.
- Granulation tissue Inhibition ([1]; 0.3 mg/pellet): 42.1%
- Relative organ weight Adrenals ([1]; 0.3 mg/pellet): 22.8 ± 1.0 mg/100 g body wt.
- Relative organ weight Adrenals (Decrease %) ([1]; 0.3 mg/pellet): (3.8) %
- Relative organ weight Thymus ([1]; 0.3 mg/pellet): 298 ± 16 mg/100 g body wt.
- Relative organ weight Thymus (Decrease %) ([1]; 0.3 mg/pellet): (8.6) %
- Body wt. gain ([1]; 1 mg/pellet): 32.8 ± 0.9 g
- Granulation tissue Dry wt. ([1]; 1 mg/pellet): 14.0 ± 1.8 mg/100 g body wt.
- Granulation tissue Inhibition ([1]; 1 mg/pellet): 68.0%
- Relative organ weight Adrenals ([1]; 1 mg/pellet): 21.8 ± 1.3 mg/100 g body wt.
- Relative organ weight Adrenals (Decrease %) ([1]; 1 mg/pellet): (8.0) %
- Relative organ weight Thymus ([1]; 1 mg/pellet): 304 ± 10 mg/100 g body wt.
- Relative organ weight Thymus (Decrease %) ([1]; 1 mg/pellet): (6.7) %
- Body wt. gain ([1]; 3 mg/pellet): 30.7 ± 1.5 g
- Granulation tissue Dry wt. ([1]; 3 mg/pellet): 18.7 ± 2.3 mg/100 g body wt.
- Granulation tissue Inhibition ([1]; 3 mg/pellet): 57.2%
- Relative organ weight Adrenals ([1]; 3 mg/pellet): 19.6 ± 1.1 mg/100 g body wt.
- Relative organ weight Adrenals (Decrease %) ([1]; 3 mg/pellet): (17.3) %
- Relative organ weight Thymus ([1]; 3 mg/pellet): 278 ± 21 mg/100 g body wt.
- Relative organ weight Thymus (Decrease %) ([1]; 3 mg/pellet): (14.7) %
- Total Weight per Rat, % Gain ± SD (thymus weight in rats): 33 ± 6%
- Total Weight per Rat, Final (thymus weight in rats): 60.60 g
- mg Thymus ± SD / 100 g Rat (thymus weight in rats): 309 ± 24 mg/100 g
